We go through one compound from patent US9205071B2, “Arsenic compounds, their preparation methods and uses thereof” (Changzhou Hi-Tech District Multiple Dimension Industry …, priority 2009, dated 2015).

Experiment [1] has as its system HL-60 cells. The experiment in a line: Cell proliferation test (MTT method). Format: cell-based. The settings on record: HL-60 cell proliferation, 48 h. How it is done: Tested drugs with different concentrations were added, and repeated four wells for each drug concentration group, then continued to culture in a CO2 incubator. Cell proliferation was detected by MTT method 48 h after culture. 15 ul MTT (5 mg/ml) was added in each well, and continued to culture for 4 h. Suspension in the well was collected, centrifuged, and supernatant was discarded. 100 ul of DMSO was added into each well to completely dissolve formazan particles. The solution was sucked into the original well, the absorbance at 492 nm was detected by ELISA, and the inhibiting rate was calculated according to the formula CI=(1-A test group /A control group)×100%.

Experiment [2] concerns HL-60 cells. The experiment in a line: Cell viability test (Trypan blue, live cell rate).

Each structure is given as a SMILES string.

Consider `O=[As]([O-])([O-])[O-].[Na+].[Na+].[Na+]` [Na3AsO4], for which the Inhibiting rate came to 2.5% in the experiment on HL-60 cells [1] (7.5 uM), 7.9% in the experiment with HL-60 cells [1] (15 uM), 13.9% with HL-60 cells [1] (30 uM) and 24.5% in the experiment on HL-60 cells [1] (60 uM). The “live cell rate at 4 d after administration” value with HL-60 cells [2] (7.5 uM) is recorded as 93.11%; in the experiment with HL-60 cells [2] (15 uM) it was 89.06%; in the experiment on HL-60 cells [2] (30 uM), 75.36%; in the experiment on HL-60 cells [2] (60 uM), 60.06%; in the experiment with HL-60 cells [2] (120 uM), 43.11%.
